Values of other authors, collected in patent publication US11857530B2, “Cannabinoid formulations” (Endocanna Health, Inc., priority 2017, dated 2024).

Tests used:
[1] = molecular target: CYP3A4 (Homo sapiens, UniProt P08684); details: after oromucosal dosing; for boost of THC and CBD levels by ketoconazole: co-administered CYP3A4 inhibitor ketoconazole; for boost of THC and CBD levels by the CYP3A4 inhibitor ketoconazole: clinical studies, co-administered ketoconazole
[2] = molecular target: ABCB1 (Homo sapiens, UniProt P08183)
Sequence of ABCB1 (P08183 whole entry): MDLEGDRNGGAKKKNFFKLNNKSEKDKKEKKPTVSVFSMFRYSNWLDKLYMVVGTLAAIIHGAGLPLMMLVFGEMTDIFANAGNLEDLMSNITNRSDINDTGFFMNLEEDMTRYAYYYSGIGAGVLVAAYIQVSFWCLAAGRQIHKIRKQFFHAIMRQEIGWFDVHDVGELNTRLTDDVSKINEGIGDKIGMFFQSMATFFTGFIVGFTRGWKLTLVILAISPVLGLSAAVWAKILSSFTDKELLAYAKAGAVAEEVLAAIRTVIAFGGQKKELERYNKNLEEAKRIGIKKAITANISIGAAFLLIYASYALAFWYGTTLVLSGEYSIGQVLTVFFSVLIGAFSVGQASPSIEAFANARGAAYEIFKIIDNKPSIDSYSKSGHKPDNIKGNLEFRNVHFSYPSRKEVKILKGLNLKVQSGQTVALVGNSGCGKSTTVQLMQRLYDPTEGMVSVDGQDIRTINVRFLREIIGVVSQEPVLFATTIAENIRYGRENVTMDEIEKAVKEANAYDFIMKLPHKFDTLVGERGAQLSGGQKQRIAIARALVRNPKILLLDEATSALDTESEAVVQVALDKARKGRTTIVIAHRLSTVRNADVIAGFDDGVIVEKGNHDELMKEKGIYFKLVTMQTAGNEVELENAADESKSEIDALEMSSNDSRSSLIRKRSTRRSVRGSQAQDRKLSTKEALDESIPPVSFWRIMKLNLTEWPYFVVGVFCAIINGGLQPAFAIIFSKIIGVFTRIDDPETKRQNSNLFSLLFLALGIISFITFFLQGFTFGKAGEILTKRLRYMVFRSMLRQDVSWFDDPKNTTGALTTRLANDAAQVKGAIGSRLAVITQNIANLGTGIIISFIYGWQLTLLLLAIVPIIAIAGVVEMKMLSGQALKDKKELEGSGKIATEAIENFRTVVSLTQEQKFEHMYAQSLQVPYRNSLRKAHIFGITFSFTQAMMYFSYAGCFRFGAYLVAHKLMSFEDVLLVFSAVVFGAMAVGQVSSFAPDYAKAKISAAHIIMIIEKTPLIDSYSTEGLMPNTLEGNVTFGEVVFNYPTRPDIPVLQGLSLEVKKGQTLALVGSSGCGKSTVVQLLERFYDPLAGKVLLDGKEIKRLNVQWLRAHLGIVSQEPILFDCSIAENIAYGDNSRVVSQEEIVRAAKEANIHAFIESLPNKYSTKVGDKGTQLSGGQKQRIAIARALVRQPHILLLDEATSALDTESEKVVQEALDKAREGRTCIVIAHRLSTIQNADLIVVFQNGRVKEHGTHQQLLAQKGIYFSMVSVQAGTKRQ

Sequence of CYP3A4 (P08684 whole entry): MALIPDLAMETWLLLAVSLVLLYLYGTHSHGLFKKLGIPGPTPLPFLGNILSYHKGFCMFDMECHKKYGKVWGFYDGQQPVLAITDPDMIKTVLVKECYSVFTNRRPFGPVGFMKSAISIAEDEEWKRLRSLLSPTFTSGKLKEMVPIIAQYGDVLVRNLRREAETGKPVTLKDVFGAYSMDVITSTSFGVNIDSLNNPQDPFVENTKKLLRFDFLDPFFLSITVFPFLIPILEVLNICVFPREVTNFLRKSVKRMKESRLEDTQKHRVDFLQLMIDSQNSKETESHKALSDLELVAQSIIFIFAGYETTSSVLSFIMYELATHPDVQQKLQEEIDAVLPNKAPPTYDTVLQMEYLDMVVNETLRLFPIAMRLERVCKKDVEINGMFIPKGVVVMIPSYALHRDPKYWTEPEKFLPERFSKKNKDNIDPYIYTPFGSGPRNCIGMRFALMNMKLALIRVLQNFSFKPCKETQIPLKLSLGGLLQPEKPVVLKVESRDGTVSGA

Row | SMILES | boost of THC and CBD levels by ketoconazole [1] | boost of THC and CBD levels by the CYP3A4 inhibitor ketoconazole [1] | THC levels, fold lower, Homozygous MINOR Alleles (T/T) ([2]; ABCB1 SNIP 2-01-AFMLG, genotype T/T) | blood THC levels after consuming THC ([2]; users with homozygous alleles (T/T) at rs1045642 of ABCB1, relative to people with a different genotype)
1 | C=C(C)[C@@H]1CCC(C)=C[C@H]1c1c(O)cc(CCCCC)cc1O [CBD, Cannabidiol] | approximately 2 fold | dosing by approximately 2-fold |  | 
2 | CCCCCc1cc(O)c2c(c1)OC(C)(C)[C@@H]1CCC(C)=C[C@@H]21 [THC, Tetrahydrocannabinol] | approximately 2 fold | dosing by approximately 2-fold | may have 2-fold lower | two-fold lower
